Experimental findings from ChEMBL document CHEMBL1156812, “Novel synthesis of the hexahydroimidazo[1,5b]isoquinoline scaffold: application to the synthesis of glucocorticoid receptor modulators” (J Med Chem, 2010) are described below.

As usually defined, the IC50 is the midpoint of a concentration-inhibition curve. Low readings indicate inhibition by little substance, high ones a need for much substance. What is called Ki is the dissociation constant of the complex between target and ligand, obtained from inhibition or displacement. The EC50 is the midpoint of the concentration-response curve.

In one data set the target is T1, Androgen receptor (Homo sapiens, UniProt P10275).
T1 sequence (P10275 whole entry): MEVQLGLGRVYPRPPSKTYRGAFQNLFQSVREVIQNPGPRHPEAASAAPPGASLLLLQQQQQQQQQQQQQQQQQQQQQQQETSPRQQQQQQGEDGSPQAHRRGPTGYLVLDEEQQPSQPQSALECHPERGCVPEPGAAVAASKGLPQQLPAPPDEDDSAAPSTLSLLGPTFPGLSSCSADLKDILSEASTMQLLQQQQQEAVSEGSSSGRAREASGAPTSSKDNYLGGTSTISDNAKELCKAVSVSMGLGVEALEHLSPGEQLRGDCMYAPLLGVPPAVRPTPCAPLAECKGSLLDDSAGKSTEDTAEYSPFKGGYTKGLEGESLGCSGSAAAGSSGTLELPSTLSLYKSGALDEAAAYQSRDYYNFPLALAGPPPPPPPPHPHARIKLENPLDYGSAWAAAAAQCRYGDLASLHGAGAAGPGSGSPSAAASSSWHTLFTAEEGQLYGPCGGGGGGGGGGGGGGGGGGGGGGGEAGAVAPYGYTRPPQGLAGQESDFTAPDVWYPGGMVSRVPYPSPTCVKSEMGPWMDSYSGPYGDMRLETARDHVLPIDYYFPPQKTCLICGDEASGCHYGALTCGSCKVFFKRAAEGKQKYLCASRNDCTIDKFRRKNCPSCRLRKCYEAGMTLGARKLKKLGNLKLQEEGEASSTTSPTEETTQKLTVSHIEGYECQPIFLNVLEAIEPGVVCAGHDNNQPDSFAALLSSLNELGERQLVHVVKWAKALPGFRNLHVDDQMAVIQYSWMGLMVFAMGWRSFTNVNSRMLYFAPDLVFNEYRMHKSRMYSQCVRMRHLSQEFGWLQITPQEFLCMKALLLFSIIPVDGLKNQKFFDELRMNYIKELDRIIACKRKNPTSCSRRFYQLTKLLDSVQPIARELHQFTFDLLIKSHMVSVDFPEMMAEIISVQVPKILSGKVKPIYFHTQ
The data set can be described thus: Binding affinity to androgen receptor.

For the next data set, the target named is T2, Progesterone receptor (Homo sapiens, UniProt P06401).
T2 sequence (P06401 whole entry): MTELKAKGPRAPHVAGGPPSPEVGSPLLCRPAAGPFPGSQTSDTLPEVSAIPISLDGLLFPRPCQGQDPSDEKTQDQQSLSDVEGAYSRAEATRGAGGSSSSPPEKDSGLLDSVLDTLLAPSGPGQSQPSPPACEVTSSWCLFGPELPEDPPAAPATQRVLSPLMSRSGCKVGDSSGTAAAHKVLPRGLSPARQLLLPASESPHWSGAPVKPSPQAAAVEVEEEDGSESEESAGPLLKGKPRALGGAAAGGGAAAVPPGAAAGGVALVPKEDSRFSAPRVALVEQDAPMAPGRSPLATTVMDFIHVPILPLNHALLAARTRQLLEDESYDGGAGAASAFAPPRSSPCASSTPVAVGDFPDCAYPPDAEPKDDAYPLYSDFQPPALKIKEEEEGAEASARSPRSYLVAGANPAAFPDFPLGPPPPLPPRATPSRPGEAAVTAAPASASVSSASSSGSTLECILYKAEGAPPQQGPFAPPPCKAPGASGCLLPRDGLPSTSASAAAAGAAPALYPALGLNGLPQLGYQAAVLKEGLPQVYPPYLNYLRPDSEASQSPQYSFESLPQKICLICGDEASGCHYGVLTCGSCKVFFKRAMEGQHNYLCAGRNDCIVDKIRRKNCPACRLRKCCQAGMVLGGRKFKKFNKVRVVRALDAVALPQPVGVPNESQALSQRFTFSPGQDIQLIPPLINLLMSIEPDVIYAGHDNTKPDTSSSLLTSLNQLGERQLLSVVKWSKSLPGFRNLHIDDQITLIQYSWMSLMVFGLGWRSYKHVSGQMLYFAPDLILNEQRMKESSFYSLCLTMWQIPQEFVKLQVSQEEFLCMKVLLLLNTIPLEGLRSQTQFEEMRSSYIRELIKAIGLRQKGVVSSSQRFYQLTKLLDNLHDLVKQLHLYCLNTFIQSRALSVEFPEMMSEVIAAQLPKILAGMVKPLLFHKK
Briefly: Binding affinity to progesterone receptor.

Data set [1] deals with T3, Glucocorticoid receptor (Homo sapiens, UniProt P04150).
T3 sequence (P04150 whole entry): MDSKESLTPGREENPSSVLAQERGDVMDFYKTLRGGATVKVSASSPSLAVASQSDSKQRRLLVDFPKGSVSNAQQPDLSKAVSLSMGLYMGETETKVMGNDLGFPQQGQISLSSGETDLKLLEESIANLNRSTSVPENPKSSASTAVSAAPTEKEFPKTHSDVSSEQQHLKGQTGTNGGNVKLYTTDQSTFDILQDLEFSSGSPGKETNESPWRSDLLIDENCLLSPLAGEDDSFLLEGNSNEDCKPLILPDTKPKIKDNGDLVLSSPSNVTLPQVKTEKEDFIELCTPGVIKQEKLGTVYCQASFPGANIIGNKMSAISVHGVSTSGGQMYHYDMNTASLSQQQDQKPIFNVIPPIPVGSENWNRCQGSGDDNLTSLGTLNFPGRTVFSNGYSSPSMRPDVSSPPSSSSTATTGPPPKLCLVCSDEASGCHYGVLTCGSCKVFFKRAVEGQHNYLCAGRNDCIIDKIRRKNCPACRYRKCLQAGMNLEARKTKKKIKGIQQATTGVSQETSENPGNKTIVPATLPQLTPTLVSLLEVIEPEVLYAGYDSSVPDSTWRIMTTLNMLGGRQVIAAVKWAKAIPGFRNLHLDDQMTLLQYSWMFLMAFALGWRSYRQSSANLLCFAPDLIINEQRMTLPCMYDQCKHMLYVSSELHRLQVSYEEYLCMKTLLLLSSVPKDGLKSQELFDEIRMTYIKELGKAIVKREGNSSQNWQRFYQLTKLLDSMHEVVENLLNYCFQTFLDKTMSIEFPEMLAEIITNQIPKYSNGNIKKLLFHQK
Briefly: Displacement of GS-red from human glucocorticoid receptor by fluorescent polarization assay.

Data set [2] deals with T3, Glucocorticoid receptor. The data set can be described thus: Transrepression activity at glucocorticoid receptor expressed in human A549 cells assessed as inhibition of IL-1-beta-induced NF-kappaB dependent E-selection promoter activation after 6 hrs by luciferase reporter gene based ELAM assay. The data set is classed as cell-based.
In data set [3] the target is T3, Glucocorticoid receptor. The data set can be described thus: Transactivation of GAL-4 tagged glucocorticoid receptor ligand binding domain expressed in human HeLa cells assessed as NP1 activation by luciferase reporter gene assay. The data set is classed as cell-based. (In general: In a reporter assay the amount or activity of a reporter protein is the signal.)
Data set [4] has as its target T3, Glucocorticoid receptor. The data set can be described thus: Transrepression activity at glucocorticoid receptor expressed in human A549 cells assessed as inhibition of PMA-induced AP1 activity after 6 hrs by luciferase reporter gene assay. The data set is classed as cell-based.
Data set [5] in a line: Metabolic stability in human liver microsomes assessed as compound remaining at 3 uM after 10 mins. The data set is classed as ADME, Microsome. Particulars: read-out: Stability. A general note: Liver microsomes are vesicles of endoplasmic reticulum, rich in cytochrome P450 enzymes.
The nature of data set [6]: Metabolic stability in mouse liver microsomes assessed as compound remaining at 3 uM after 10 mins. The data set is classed as ADME, Microsome. Particulars: read-out: Stability.
Data set [7] can be described thus: Metabolic stability in rat liver microsomes assessed as compound remaining at 3 uM after 10 mins. The data set is classed as ADME, Microsome. Particulars: read-out: Stability.

`C=CC[C@@](C)(O)[C@H]1CCCC2=Cc3c(-c4ccc(F)cc4)ncn3C[C@@]21C` showed an IC50 at Androgen receptor greater than 4000 nM. For the same compound, the Ki at Progesterone receptor was determined as 1810 nM; at Glucocorticoid receptor [1] it was 4.3 nM. Besides, the results for the EC50 on Glucocorticoid receptor [2], at Glucocorticoid receptor [3] and on Glucocorticoid receptor [4] were 79 nM, greater than 5000 nM and 57 nM, respectively.
In turn, `C[C@]12Cn3cnc(-c4ccc(F)cc4)c3C=C1CCC[C@@H]2[C@](C)(O)c1ccc(Cl)cc1` displayed an IC50 on Androgen receptor greater than 4000 nM. The remaining at 10 min, 3 µM in [5] worked out at 56%; in data set [6] it was 73%; in data set [7], 51%. The Ki came to 238 nM on Progesterone receptor and 2 nM on Glucocorticoid receptor [1]. Besides, the EC50 was 19 nM on Glucocorticoid receptor [2], 697 nM on Glucocorticoid receptor [3] and 7.5 nM on Glucocorticoid receptor [4].
Regarding `Cc1ccsc1[C@@](C)(O)[C@H]1CCCC2=Cc3c(-c4ccc(F)cc4)ncn3C[C@@]21C`, the IC50 at Androgen receptor was greater than 4000 nM. Also, the remaining at 10 min, 3 µM in [5] was 3%; in data set [6] it was 21%; in [7] it was 2%. The Ki was determined as 132 nM on Progesterone receptor and 2 nM on Glucocorticoid receptor [1]. Further, the EC50 came out at 30 nM on Glucocorticoid receptor [2], 380 nM on Glucocorticoid receptor [3] and 29 nM at Glucocorticoid receptor [4].
With `C[C@]12Cn3cnc(-c4ccc(F)cc4)c3C=C1CCC[C@@H]2[C@](C)(O)c1ccc(Cl)s1`, on Androgen receptor, the IC50 was greater than 4000 nM. For the same compound, the Ki was 409 nM at Progesterone receptor and 4 nM on Glucocorticoid receptor [1]. The figures for the EC50 on Glucocorticoid receptor [2], at Glucocorticoid receptor [3] and at Glucocorticoid receptor [4] were 11 nM, 253 nM and 11 nM, respectively.
`C[C@]12Cn3cnc(-c4ccc(F)cc4)c3C=C1CCC[C@@H]2[C@](C)(O)c1cccs1`: the concentration for half-maximal inhibition (IC50) on Androgen receptor was greater than 4000 nM. Also, the Ki on Progesterone receptor came out at 230 nM; on Glucocorticoid receptor [1], 2 nM. For the same compound, the values for the EC50 on Glucocorticoid receptor [2] and at Glucocorticoid receptor [4] were 41 nM and 52 nM, respectively.
For `C[C@]12Cn3cnc(-c4ccc(F)cc4)c3C=C1CCC[C@@H]2[C@H](O)c1ccc(F)cc1` (stereo in doubt; 19), the Ki was 451 nM on Progesterone receptor and 21 nM at Glucocorticoid receptor [1]. Besides, the EC50 came out at 243 nM at Glucocorticoid receptor [2] and 272 nM at Glucocorticoid receptor [4].
